For test [1], the target named is T1, mushroom TYR (Agaricus bisporus, UniProt C7FF04).
T1 construct: purchased Sigma-Aldrich, Merck T3824
The experiment in a line: Kinetic study, Lineweaver-Burk, mono-phenolase. The format is biochemical. To be noted: Km rose, Vmax unchanged. As for the experimental part:
(§1) It is necessary to determine the type of TYR inhibitory activity which takes place. This can be achieved through a modified version of an assay described by Feng et al.[39]. The process starts by dissolving the peptide VY-9 in deionized water at various concentrations (0, 0.25, 0.5, and 1 mM). Each VY-9 peptide sample at each concentration (35 µL) was combined 15 µL of mushroom TYR (333 U/mL in 50 mM PBS pH 6.8) prior to 5 min of incubation at 25 °C. Subsequently, various concentrations of substrate were introduced, namely 0–2 mM L-tyrosine in the case of mono-phenolase, and 0–12 mM L-DOPA for di-phenolase. These new mixtures underwent further incubation for 30 min at the same temperature of 25 °C. Upon completion, a spectrophotometer was used to measure the absorbance and determine the inhibitory activity at 490 nm. Lineweaver-Burk plots were then used in calculating Km and Vmax, the kinetic parameters. Km is indicated by the intersection point on the X-axis while Vmax is indicated by the intersection point on the Y-axis in the mode of TYR inhibition under examination. Construction of the plots linked the substrate concentration reciprocal on the X-axis and the absorbance reciprocal (at 490 nm) on the Y-axis, to represent the starting rate for the enzymatic reaction. […]

Test [2] addresses T1, mushroom TYR. The experiment in a line: Kinetic study, Lineweaver-Burk, di-phenolase. The format is biochemical. Particulars: Km rose, Vmax unchanged. Here is the method: as §1
Test [3] concerns Trp-2. The experiment in a line: qRT-PCR, Trp-2 mRNA. Format: cell-based, mouse. Particulars: B16F10, 48 h. As for the experimental part: A 6-well plate was used to seed B16F10 cells at 1 × 10^5 cells per well prior to overnight incubation in a 5% CO2 humid atmosphere at 37°C. […] Harvesting was conducted via removal of the supernatant, and the cells were rinsed twice in PBS (phosphate-buffered saline). The PureLink™RNA Mini Kit (Invitrogen™, USA) was then used to extract total RNA in line with the guidance of the manufacturer. RNA concentration was assessed at 260 nm with a NanoDrop 2000 UV-Vis spectrophotometer (Thermo Fisher Scientific, Inc.). Oligo-dT primers and a Precision nanoScript II Reverse Transcription Kit (PrimerDesign, Camberley, UK) were used to perform the reverse transcription of 1 µg of total RNA to cDNA in line with the guidance of the manufacturer. MyGo Pro®Real time PCR apparatus (IT-IS International Ltd., Stokesley, UK) was then used to perform the qRT-PCR assays in which 20 µL of PCR reaction contained 1 µL of cDNA, 7 µL of ultrapure water, 1 µL of each primer […], and 10 µL of 2×qPCRBIO SyGreen Mix (PCR Biosystems Ltd, London, UK). This research made use of the following PCR primers: Gapdh forward 5’-[…]-3’, Gapdh reverse 5’-[…]-3’, Tyr forward 5’-[…]-3’, Tyr reverse 5’-[…]-3’, Trp-1 forward 5’-[…]-3’, Trp-1 reverse 5’-[…]-3’, Trp-2 forward 5’-[…]-3’, Trp-2 reverse 5’-[…]-3’, Mitf forward 5’-[…] − 3’, Mitf reverse 5’-[…]-3’. The initial stage of the process of qRT-PCR amplification was the activation step of thermal treatment where a temperature of 95 °C was used for 2 min, with 45 subsequent cycles comprising 10 s at 95 °C, 20 s at 60 °C, and 30 s at 72 °C, before embarking upon the final melting curve from 60 to 97 °C with 1 min for each step. The relative gene expression level could then be calculated via the cycle threshold (Ct) value, while the role of endogenous control for data normalization was occupied by Gapdh (the housekeeping gene). To calculate relative gene expression, the formula given below can be employed:2 [drawing 2]
where the heightened threshold cycle for the target gene is given as ΔΔCt.
In general terms: Real-time PCR tracks product formation cycle by cycle.

In the next test the test system is Mitf. Description: Western blot, MITF protein. The format is cell-based, mouse. Here is the method:
(§2) Following this process, the cells were lysed using NP40 Cell Lysis Buffer with protease inhibitor cocktail supplementation. Next, 12% sodium dodecyl sulfate poly-acrylamide (SDS-PAGE) gel electrophoresis was used to extract equal quantities of protein from each sample, with subsequent transfer to PVD (polyvinylidene fluoride) membranes (Millipore, Bedford, MA, USA). The membrane was blocked overnight with 3% skimmed milk (w/v) in TBST with 0.5% Tween 20 at 4 °C and then washed thrice in TBST. The rabbit polyclonal anti-TYR antibody (dilution 1:1000), anti-TRP-1 antibody (dilution 1:1000), anti-TRP-2 antibody and anti-MITF antibody (dilution 1:1000) obtained from Abcam (USA), were used respectively to detect the TYR, TRP-1, TRP-2, and MITF bands. After thrice washing again in TBST, secondary antibodies (dilution 1:5000) were added to the membranes for 1 h of incubation at room temperature before another triplicate washing in TBST. Enhanced chemiluminescence horseradish peroxidase (HRP) substrates (GeneDirex, Taiwan) were then used in line with the guidance of the manufacturer to detect bound antibodies, while β-actin antibody was employed to evaluate the loading control. Gel band detection was performed using ImageJ software (version 1.54), available at https://imagej.net/ij/. The software facilitated the identification and quantification of protein expression levels.

Test [4] has as its system Trp-2. Description: Western blot, TRP-2 protein. Format: cell-based, mouse. Particulars: B16F10, 48 h. Here is the method:
as §2

Ends that are not written are not given here.

T1 sequence (C7FF04 2-392): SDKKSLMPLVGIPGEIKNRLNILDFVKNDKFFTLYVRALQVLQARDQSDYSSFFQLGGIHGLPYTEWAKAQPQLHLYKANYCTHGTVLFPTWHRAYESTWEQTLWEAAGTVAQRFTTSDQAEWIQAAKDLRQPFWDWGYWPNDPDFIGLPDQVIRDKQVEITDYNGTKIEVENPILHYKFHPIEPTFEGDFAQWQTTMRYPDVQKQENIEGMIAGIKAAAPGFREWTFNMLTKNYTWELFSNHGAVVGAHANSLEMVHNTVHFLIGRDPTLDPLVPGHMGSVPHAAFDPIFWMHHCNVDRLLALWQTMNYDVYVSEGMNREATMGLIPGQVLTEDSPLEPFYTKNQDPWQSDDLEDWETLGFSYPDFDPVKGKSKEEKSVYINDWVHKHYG

On to “VDGYPAAGY [VY-9, Val-Asp-Gly-Tyr-Pro-Ala- Ala-Gly-Tyr]”, for which the “inhibition type, mono-phenolase” value at mushroom TYR [1] is “competitive inhibitor”. The “inhibition type, di-phenolase” value against mushroom TYR [2] is on record as “competitive inhibitor”. Also, in the test with Trp-2 [3] (0.2 µM), the “TRP-2 mRNA level vs control” value is “decreased slightly compared to the control”. The “Trp-2 mRNA expression vs control” value in the test with Trp-2 [3] (1.6 µM) is on record as “significantly reduced the expression levels of all measured genes”. In the test with Trp-2 [3] (vs control), the “concentration from which Trp-2 mRNA expression decreased” value turned out to be 0.2 µM. In the test with Trp-2 [3] (VY-9 1.6 µM vs arbutin 0.2 mM), the “Trp-2 mRNA expression vs arbutin” value is “significantly decreased compared to arbutin”. In the test on Mitf (1.6 µM, B16F10, 48 h), the “MITF protein expression vs control” value is recorded as “the expression of all proteins decreased compared to the control”. The “concentration from which MITF protein expression decreased” value in the test with Mitf (B16F10, 48 h, western blot) amounted to 0.4 µM. Further, the “MITF protein expression vs arbutin” value with Mitf (VY-9 1.6 µM vs arbutin 0.2 mM, 48 h) is reported as “only MITF showed a lower expression level”. Moreover, the “TRP-2 protein level vs control” value with Trp-2 [4] (0.2 µM) is listed as “decreased slightly compared to the control”. Also, the “TRP-2 protein expression vs control” value with Trp-2 [4] (1.6 µM) is “the expression of all proteins decreased compared to the control”. Moreover, the “concentration from which TRP-2 protein expression gradually decreased” value in the test with Trp-2 [4] (western blot) came out at 0.2 µM.
